Results on six substances are retold here after PMC10381486, “Hydantoanabaenopeptins from Lake Kinneret Microcystis Bloom, Isolation, and Structure Elucidation of the Possible Intermediates in the Anabaenopeptins Biosynthesis” (Marine Drugs, 2023).

One assay deals with chymotrypsin (Bos taurus, UniProt P00766). Kind of assay: Chymotrypsin inhibition assay (SGGPNA substrate, 96-well plate). The format is biochemical. The following applies: Tris buffer pH 7.5, 5 min pre-incubation at 37 °C, kinetic absorbance at 405 nm over 30 min. As for the experimental part: […] Assays were performed in a 96-well plate format.
The assay was performed in a Tris buffer (0.6 gr TRIS HCl/100 mL H2O, pH 7.5). The enzyme and the substrate Suc-Gly-Gly-phenylalanine-p-nitroanilide (SGGPNA) were dissolved in the buffer at a concentration of 1 mg/mL. To each well were added 100 μL of buffer, 10 μL of enzyme, and 10 μL of sample. Then, the plate was placed in the spectrophotometer for a 5 min incubation at 37 °C. Thereafter, to each well, 100 μL of substrate solution was added, and the plate was placed in the spectrophotometer for the kinetic measurement of the absorbance intensity over 30 min at a wavelength of 405 nm.

Another assay deals with T1, trypsin (Bos taurus, UniProt P00760).
T1 construct: gene PRSS1
T1 sequence (P00760 24-246): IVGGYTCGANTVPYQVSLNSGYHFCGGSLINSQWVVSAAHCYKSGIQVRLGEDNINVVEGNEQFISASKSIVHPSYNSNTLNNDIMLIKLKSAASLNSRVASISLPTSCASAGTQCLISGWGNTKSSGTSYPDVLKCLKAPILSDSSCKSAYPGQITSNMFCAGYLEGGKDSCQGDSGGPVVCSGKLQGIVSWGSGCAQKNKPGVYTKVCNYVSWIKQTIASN
Kind of assay: Trypsin inhibition assay (BAPNA substrate, 96-well plate). The format is biochemical. The following applies: Tris buffer pH 7.5, 5 min pre-incubation at 37 °C, kinetic absorbance at 405 nm over 30 min. As for the experimental part: The samples for biological assays were dissolved in DMSO at a concentration of 1 mg/mL and were tested for inhibition of the proteases at a single concentration: 1 […]. Assays were performed in a 96-well plate format.
The assay was performed in a Tris buffer (0.6 g Tris HCl in 100 mL H2O, pH 7.5). Benzoyl-L-arginine-p-nitroanilide hydrochloride (BAPNA), the trypsin substrate, was dissolved at 1 mg/mL in 1:9 DMSO/buffer. The enzyme was dissolved in buffer at 1 mg/mL. To each well were added 100 μL of buffer, 10 μL of enzyme, and 10 μL of sample. The plate was placed in the spectrophotometer at 37 °C. After 5 min, 100 μL of substrate solution was added to each well, and the plate was placed in the spectrophotometer for the kinetic measurement of the absorbance intensity over 30 min at a wavelength of 405 nm.

Turning to “Dht-CO-cyclo-[Lys-Val-Hty-NMeAla-Phe] (lariat or depsi) [Compound 5, ^1[Dht]-anabaenopeptin A, new anabaenopeptin with dihomotyrosine at position 1]”, on chymotrypsin (single concentration 53.3 μM), the “inhibition of the serine protease chymotrypsin” value is “nonactive”.

Consider Hydanto-oscillamide Y [Compound 4], for which the “inhibition of the serine protease chymotrypsin” value against chymotrypsin (single concentration 54.2 μM) was “nonactive”. Hydantoanabaenopeptin B [Compound 2]: the “inhibition of the serine protease trypsin” value against trypsin (single concentration 55.6 μM) is on record as “nonactive”. As to “Phe, NMeAla, Hty, Ile, Lys, and Arg (lariat or depsi) [Compound 3, Hydantoanabaenopeptin F, hydantoin derivative of anabaenopeptin F isolated from Lake Kinneret Microcystis bloom]”, on trypsin (single concentration 54.6 μM), the “inhibition of the serine protease trypsin” value is on record as “nonactive”. In the case of “cyclo-(Phe-NMeAla-Hty-Val-Lys-ε-NH)- (lariat or depsi) [Compound 1, Hydantoanabaenopeptin A, hydantoin derivative of anabaenopeptin A isolated from Lake Kinneret Microcystis bloom]”, the “inhibition of the serine protease chymotrypsin” value at chymotrypsin (single concentration 55.1 μM) is “nonactive”. Regarding “hydanto-Dht-[Lys-Val-Hty-NMeAla-Phe] (lariat or depsi) [Compound 6, ^1[Dht]-hydantoanabaenopeptin A, hydantoin derivative of 1[Dht]-anabaenopeptin A]”, the “inhibition of the serine protease chymotrypsin” value on chymotrypsin (single concentration 53.3 μM) is “nonactive”.
